The test system of one test is B16 cells. The experiment in a line: Mouse in vitro cytotoxicity (EuTDA), B16 cells co-cultured with neutrophils. In kind it is cell-based. The conditions noted are these: for effect of agent on ex vivo killing of tumor cells by neutrophils: neutrophils from treated tumors stimulated with neutrophil-activating therapy. The protocol: B16 tumors were treated by intratumoral injection of TNF+anti-CD40+anti-gp75 and harvested 12 hours post-treatment. Tumors were dissected away from any surrounding fat, minced, and digested in 5 mg/ml collagenase IV (Worthington) plus 0.1 mg/ml DNase I (Sigma) with continuous mixing by magnetic stir bars for 20 minutes at 37° C. in RPMI-1640 (Gibco) with 2% FBS. Following digestion, tissue was mashed through a […] cell strainer (Falcon) and washed. For some studies, bone marrow was harvested by grinding bones from tumor-naive untreated mice in a mortar and pestle and mashing through a […] strainer (Falcon). Neutrophils were isolated from tumor and bone marrow samples with the MojoSort Mouse Ly6G Selection Kit (BioLegend), according to the manufacturer's instructions, and used in the cytotoxicity assay.
Cytotoxicity assays were conducted using the EuTDA assay from the DELFIA TRF cytotoxicity kit (PerkinElmer) according to the manufacturer's instructions. Briefly, B16 cells were labeled for 10 minutes with BATDA, and 5×10^3 labeled cells were added per well to a 96 well V-bottom plate in RPMI-1640. Neutrophils were added at a ratio of 10:1 unless otherwise stated. All co-cultures were conducted in the presence of TNF (10 ng/ml), anti-CD40 (1 μg/ml), anti-gp75 (1 μg/ml), and 10% active mouse C57BL/6 complement serum (Innovative Research), except where indicated otherwise. Mouse C57BL/6 complement serum was heat-inactivated for 40 minutes at 57° C. where inactivation is specified. In some experiments, mouse IgG2a isotype control (1 μg/ml, isotype control for anti-gp75, clone C1.18.4, Bio X Cell), anti-mouse CD16/CD32 (10 μg/ml, clone 2.4G2, Bio X Cell), recombinant mouse C5a (50 nM, R&D Systems), anti-C5a (25 μg/ml, clone 295108, R&D Systems), rat IgG2a isotype control (25 μg/ml, isotype control for anti-C5a, clone 2A3, Bio X Cell), anti-C5AR1 (5 μg/ml, clone 20/70, BioLegend), rat IgG2b isotype control (5 μg/ml, isotype control for anti-C5AR1, clone LTF-2, Bio X Cell), SC57461A (10 μM, Cayman Chemical), CP-105696 (1 μM, Sigma), topiroxostat (10 μM, MedChem Express), or DMSO (vehicle for SC57461A, CP-105696, and topiroxostat) were added to the wells with the B16 and neutrophils. After 4 hours of co-culture at 37° C., supernatant was taken from the wells, Europium solution was added, and TDA released from lysed B16 cells was detected by […] on a Victor X4 fluorescence microplate reader (PerkinElmer). Percent maximal lysis was determined by calculating the specific release of TDA using the formula: (experimental release−spontaneous release)/(maximum release −spontaneous release), where spontaneous release was determined by wells containing no neutrophils and maximum release was determined by wells with lysis buffer added.
For trogocytosis studies investigating transfer of tumor-binding antibody, anti-gp75 labeled with AF647 (clone TA99, Novus Biologicals) was used in place of unlabeled anti-gp75. For studies investigating transfer of B16 cell membrane, DiD′ Solid (ThermoFisher Scientific) was reconstituted in DMSO at 10 mg/ml and diluted to a working solution of 5 μg/ml in serum-free DMEM. B16 cells were labeled in this solution for 20 minutes at 37° C. at 1×10^6 cells/ml. Labeled B16 was washed 3 times in warm media before being added to the co-culture wells with the neutrophils. Following co-culture, flow cytometry was used to identify DiD signal in neutrophils.

In a further test the test system is B16 tumors. In words: TUNEL staining of cell death in B16 tumors. It counts as in vivo, mouse. The conditions noted are these: agent given prior to neutrophil-activating therapy. As to the method: Tumors were dissected away from surrounding fat, fixed in 2% paraformaldehyde for 2 hours at 4° C., equilibrated in a 30% sucrose solution at 4° C., and embedded and frozen in O.C.T. Compound (Tissue-Tek). Slides were cut to […] and blocked with 1% BSA and 10% serum matched to the secondary antibody species. The following antibodies were used for immunofluorescence: PE anti-Ly6G (clone 1A8, BioLegend), DyLight 650 anti-gp75 (clone TA99, Bio X Cell, labeled using DyLight 650 NHS Ester (Thermo Scientific)), fluorescein anti-gp75 (clone TA99, Bio X Cell, labeled using NHS-Fluorescein (Thermo Scientific)), FITC anti-DNA/RNA damage (clone 15A3, recognizing 8-hydroxy-2′-deoxyguanosine/8-oxo-7,8-dihydroguanine/8-oxo-7,8-dihydroguanosine, Abcam), and AF647 anti-C3 (clone 11H9, Novus Biologicals). DAPI (Invitrogen) was stained at 1 μg/ml. FITC/fluorescein signal was amplified using AF488 anti-FITC (ThermoFisher Scientific), and PE was amplified using biotin anti-PE (clone PE001, BioLegend) followed by DyLight 594 streptavidin (BioLegend) or DyLight 649 streptavidin (BioLegend). Prior to use of biotinylated antibodies, endogenous biotin was blocked using the Avidin/Biotin Blocking Kit (Vector Laboratories). Prior to DNA/RNA damage staining, sections were permeabilized with 0.1% Triton X-100 in 0.1% sodium citrate. TUNEL (Terminal deoxynucleotidyl transferase dUTP nick end labeling) staining was performed using the In Situ Cell Death Detection Kit, TMR Red (Roche) according to the manufacturer's instructions. […] All parameters that were quantified were acquired with identical microscope settings and adjusted identically in Photoshop, and all adjustments were applied equally across the entire tumor. Quantification was performed in ImageJ, using the wand tool on the overlaid multichannel image to draw a border around the tumor and then measuring the percent area within that border with signal for the channel of the marker quantified.

A further test has as its system naive neutrophils. The experiment in a line: Mouse in vitro neutrophil stimulations. In kind it is cell-based. As to the method: Mouse in vitro neutrophil stimulations. Bone marrow was harvested by grinding bones in a mortar and pestle and mashing through a […] strainer (Falcon). Neutrophils were isolated by negative selection with the MojoSort Mouse Neutrophil Isolation Kit (BioLegend). Following isolation, neutrophils were plated in Opti-MEM (Gibco) at 1×10^5 cells in 100 μl and stimulated with 10 ng/ml TNF, 1 μg/ml anti-CD40, 1 μg/ml anti-gp75, and/or 50 nM recombinant mouse C5a (R&D Systems) for 30 minutes at 37° C. After 30 minutes, the supernatant was collected, centrifuged to remove cells and debris, and analyzed for LTB4 using the Leukotriene B4 ELISA kit (Cayman Chemical 520111) as described above. Additionally, stimulated neutrophils were stained for activation markers and analyzed by flow cytometry as described above.

The source of these data is patent US20250263496A1, “Neutrophil-Activating Therapy for the Treatment of Cancer” (The Board of Trustees of the Leland Stanford Junior …, priority 2024, published 2025).

With `O=C(O)C1(c2ccc3c(c2)OC[C@H](Cc2ccc(-c4ccccc4)cc2)[C@H]3O)CCCC1` [CP-105696], in the test with B16 cells, the “effect of agent on ex vivo killing of tumor cells by neutrophils” value (“effect of agent … by neutrophils” for short) was “prevented ex vivo killing of tumor cells”.
As for `CN(CCCOc1ccc(Cc2ccccc2)cc1)CCC(=O)O.Cl` [SC57461A], the “effect of agent … by neutrophils” value in the test on B16 cells is “prevented ex vivo killing of tumor cells”. Moreover, the “effect of agent on treatment-induced tumor cell death” value in the test on B16 tumors is recorded as “prevented treatment-induced tumor cell death”.
For `N[C@@H](CCC(=O)N[C@@H](CS)C(=O)NCC(=O)O)C(=O)O` [GSH, Reduced L-glutathione], the “effect of agent … by neutrophils” value in the test on B16 cells is reported as “blocked ex vivo killing of tumor cells”. For the same molecule, the “effect of agent on treatment-induced tumor cell death” value with B16 tumors is reported as “decreased tumor cell death in vivo”.

B1: catalase: enzyme neutralizing hydrogen peroxide (C40, Sigma) (protein, UniProt P00432 2-527, looked up)
Catalase: ADNRDPASDQMKHWKEQRAAQKPDVLTTGGGNPVGDKLNSLTVGPRGPLLVQDVVFTDEMAHFDRERIPERVVHAKGAGAFGYFEVTHDITRYSKAKVFEHIGKRTPIAVRFSTVAGESGSADTVRDPRGFAVKFYTEDGNWDLVGNNTPIFFIRDALLFPSFIHSQKRNPQTHLKDPDMVWDFWSLRPESLHQVSFLFSDRGIPDGHRHMNGYGSHTFKLVNANGEAVYCKFHYKTDQGIKNLSVEDAARLAHEDPDYGLRDLFNAIATGNYPSWTLYIQVMTFSEAEIFPFNPFDLTKVWPHGDYPLIPVGKLVLNRNPVNYFAEVEQLAFDPSNMPPGIEPSPDKMLQGRLFAYPDTHRHRLGPNYLQIPVNCPYRARVANYQRDGPMCMMDNQGGAPNYYPNSFSAPEHQPSALEHRTHFSGDVQRFNSANDDNVTQVRTFYLKVLNEEQRKRLCENIAGHLKDAQLFIQKKAVKNFSDVHPEYGSRIQALLDKYNEEKPKNAVHTYVQHGSHLSAREKANL
As for B1, in the test on B16 cells, the “effect of agent … by neutrophils” value is on record as “blocked ex vivo killing of tumor cells”.

B2: C5a: recombinant mouse C5a (R&D Systems) (protein, UniProt P06684 679-755, looked up)
C5a anaphylatoxin: NLHLLRQKIEEQAAKYKHSVPKKCCYDGARVNFYETCEERVARVTIGPLCIRAFNECCTIANKIRKESPHKPVQLGR
modifications: C5a anaphylatoxin
Take B2: the “requirement for ex vivo killing of B16 cells by tumor-infiltrating neutrophils” value with B16 cells is reported as “required C5a or serum containing functional complement”. Further, in the test with naive neutrophils (in vitro), the neutrophil activation result is “activated neutrophils”. Further, in the test on naive neutrophils (in vitro stimulation), the “LTB4 production by neutrophils” value was “induced LTB4”.
